Results reported in the Kinase Knowledgebase extract (Sharma et al. 2016).

target: CDK2 (human) (UniProt P24941); assay: Enzyme Assay

IC50, < 5 µM:
CNC(=O)Cn1ccc2c(-c3ccnc(Nc4cccc(Cl)c4)n3)cccc21, Cn1ccc2c(-c3ccnc(Nc4cccc(Cl)c4)n3)cccc21, CN(C)C(=O)Cn1ccc2c(-c3ccnc(Nc4cccc(Cl)c4)n3)cccc21, CN(C)CCn1ccc2c(-c3ccnc(Nc4cccc(Cl)c4)n3)cccc21, NS(=O)(=O)c1cccc(Nc2ncc(F)c(-c3cccc4[nH]ccc34)n2)c1, CN(C)CCCn1ccc2c(-c3ccnc(Nc4cccc(Cl)c4)n3)cccc21, Cc1ccc2[nH]ccc2c1-c1ccnc(Nc2cccc(S(C)(=O)=O)c2)n1, OCCn1ccc2c(-c3ccnc(Nc4cccc(Cl)c4)n3)cccc21, O=C(Cn1ccc2c(-c3ccnc(Nc4cccc(Cl)c4)n3)cccc21)NCC1CCCN1 (stereo unspecified), COc1cnc(Nc2cccc(S(N)(=O)=O)c2)nc1-c1cccc2[nH]ccc12, OCCCn1ccc2c(-c3ccnc(Nc4cccc(Cl)c4)n3)cccc21, Cc1cnc(Nc2cccc(S(N)(=O)=O)c2)nc1-c1cccc2[nH]ccc12, CS(=O)(=O)c1cccc(Nc2nccc(-c3cccc4[nH]ccc34)n2)c1, Cc1cnc(Nc2cccc(S(C)(=O)=O)c2)nc1-c1cccc2[nH]ccc12, O=C(Cn1ccc2c(-c3ccnc(Nc4cccc(Cl)c4)n3)cccc21)NCCO, CC(C)(C)NC(=O)Cn1ccc2c(-c3ccnc(Nc4cccc(Cl)c4)n3)cccc21
